The results in this text go back to patent US20260240878A1, “PTP1B/TC-PTP DUAL INHIBITORS AND PROTEIN DEGRADERS” (Purdue Research Foundation, priority 2023, published 2026).

The target in assay [1] is T1, PTP1B (Homo sapiens, UniProt P18031).
T1 sequence (P18031 1-435): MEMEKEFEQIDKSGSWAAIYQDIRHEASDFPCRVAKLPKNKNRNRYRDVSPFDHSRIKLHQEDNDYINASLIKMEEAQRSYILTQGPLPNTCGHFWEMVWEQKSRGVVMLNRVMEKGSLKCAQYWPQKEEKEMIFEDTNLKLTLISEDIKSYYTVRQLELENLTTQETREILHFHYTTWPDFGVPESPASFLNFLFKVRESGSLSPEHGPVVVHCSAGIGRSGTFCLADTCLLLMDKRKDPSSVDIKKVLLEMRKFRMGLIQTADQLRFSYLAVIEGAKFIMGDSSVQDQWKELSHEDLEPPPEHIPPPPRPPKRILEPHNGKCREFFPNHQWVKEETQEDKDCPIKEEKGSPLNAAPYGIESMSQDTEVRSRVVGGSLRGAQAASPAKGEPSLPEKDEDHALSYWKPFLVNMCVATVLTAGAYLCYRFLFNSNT
Nature of the assay: FP-based library screening (fluorescence polarization displacement). Type of assay: binding. Here is the method: (§1) The library screening assay was carried out on a Tecan Genesis workstation with a 96-channel tip block with fixed tips. Before the screening, the library compounds were diluted from the DMSO stock solution into 3,3-dimethylglutarate buffer (50 mM 3,3-dimethylglutarate buffer, pH 7.0, containing 1 mM EDTA with an ionic strength of 0.15 M adjusted by addition of NaCl), resulting in a set of six daughter plates with an ~75 nM concentration of each compound in each well. In the first screen, PTP1B or TCPTP (2 μM in 50 mM 3,3-dimethylglutarate buffer, 50 μL, pH 7.0, containing 1 mM EDTA with an ionic strength of 0.15 M adjusted by addition of NaCl) was dispensed into each well of a 384-well plate, and then 2 μL of the fluorescein-tagged library compounds were transferred from four 96-well intermediate plates to the 384-well plate (final compound concentration ~3 nM). The fluorescence polarization values (A1) were recorded on an Envision 2021 Multilabel Microplate Reader (Perkin-Elmer). In the second screen, 50 μL of a mixture of 2 μM PTP1B or TCPTP and 500 μM Fmoc-F2Pmp-OH (as a competitive ligand) in 3,3-dimethylglutarate buffer (50 mM 3,3-dimethylglutarate buffer, pH 7.0, containing 1 mM EDTA with an ionic strength of 0.15 M adjusted by addition of NaCl) were dispensed into each well of another 384-well plate, followed by the addition of 2 μL of the fluorescein tagged library compounds (75 nM in 3,3-dimethylglutarate buffer, pH 7.0, containing 1 mM EDTA with an ionic strength of 0.15 M adjusted by addition of NaCl). The fluorescence polarization values (A2) were again measured. A displacement percentage was calculated for each library compound as (A1−A2)/(A1−A0)×100%, where A1 and A2 are the fluorescence anisotropy values of each sample as described, and A0 is the fluorescence anisotropy of free library compounds in 3,3-dimethylglutarate buffer. To simplify the calculation, A0 was set to 30. The binding affinity ranking of each compound was determined on the displacement percentage: the […] the displacement percentage, the higher the binding affinity.
(§2) The library was screened using the same protocol as the library 1, except that 0.5 μM PTP1BB/TC-PTP and 1.5 mM competitive ligand Fmoc-F2Pmp-OH were used.
(§3) The library was screened using the same protocol as the library 1, except that 0.5 μM PTP1B/TC-PTP and 5 μM ((4-((S)-2-((S)-2-acetamido-3-phenylpropanamido)-3-(((S)-1-amino-6-(3-bromo-4-methylbenzamido)-1-oxohexan-2-yl)amino)-3-oxopropyl)phenyl)difluoromethyl)phosphonic acid (as a competitor) were used.
In general terms: In fluorescence polarisation assays a small probe gives low polarisation when free and higher when bound to something large.

Assay [2] has as its target T2, TC-PTP (Homo sapiens, UniProt P17706).
T2 sequence (P17706 1-415): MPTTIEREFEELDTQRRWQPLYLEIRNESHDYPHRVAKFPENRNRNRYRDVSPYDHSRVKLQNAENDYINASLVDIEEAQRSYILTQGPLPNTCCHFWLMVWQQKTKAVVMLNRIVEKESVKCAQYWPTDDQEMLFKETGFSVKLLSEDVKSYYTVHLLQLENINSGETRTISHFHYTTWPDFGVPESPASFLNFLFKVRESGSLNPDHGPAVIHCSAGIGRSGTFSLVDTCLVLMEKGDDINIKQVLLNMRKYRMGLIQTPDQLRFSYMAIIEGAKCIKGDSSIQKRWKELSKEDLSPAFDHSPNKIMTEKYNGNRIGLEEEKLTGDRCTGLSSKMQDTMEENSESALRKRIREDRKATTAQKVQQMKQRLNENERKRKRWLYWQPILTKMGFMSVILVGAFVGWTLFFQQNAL
The assay is described as above. It is filed as binding. Here is the method:
as §1, §2, §3

In assay [3] the target is T1, PTP1B. The assay is described as follows: PTP activity assay with pNPP substrate (IC50, Ki, mode of inhibition). It is filed as biochemical. Here is the method: (§4) PTP activity was assayed using p-nitrophenyl phosphate (pNPP) as a substrate in DMG buffer (50 mM DMG. pH 7.0, 1 mM EDTA, 150 mM NaCl, 2 mM DTT, 0.1 mg/mL BSA) at 25° C. The assays were performed in 96-well plates. Normally, to determine the IC50 values, the reaction was initiated by the addition of enzyme (for PTP1B and TCPTP, the final concentration was 0.4 nM, for other PTPs, the final concentration was 10 nM) to a reaction mixture (0.2 mL) containing 2 mM (Km for the substrate) pNPP with various concentrations of inhibitors (see FIG. 1). The reaction rate was measured using a SpectraMax Plus 384 Microplate Spectrophotometer (Molecular Devices). Data were fitted using SigmaPlot Enzyme Kinetics Module (Systat Software, Inc.). To determine the mode of inhibition, the reactions were initiated by the addition of enzyme (final concentration for TC-PTP and PTP1B was 0.4 nM) to the reaction mixtures (0.2 mL) containing various concentrations of pNPP with different concentrations of the inhibitor. Data were fitted using SigmaPlot Enzyme Kinetics Module (Systat Software. Inc.).

Assay [4] concerns the target T2, TC-PTP. Described as above. It is filed as biochemical. As to the method:
as §4

For assay [5], the target named is T1, PTP1B. Nature of the assay: Degradation assay in HEK293 cells (immunoblotting). It is filed as cell-based. Further details: endogenous in cells; host or cells: HEK293. To be noted: 0.2 μM degrader, 16 hours. Here is the method: (§5) HEK293. MIAPaCa-2, HepG2, U2OS, H116, MEF, B16F10, and MC38 cells, were grown in DMEM, while Jurkat and H358 cells were grown in RPMI 1640 supplemented with 10% fetal bovine serum, penicillin (50 units/mL), and streptomycin (50 μg/mL) in a 37° C. incubator containing 5% CO2. 20 ng/ml human (Biolegend #713906) or mouse (Biolegend #714006) Interferon-γ were used for JAK/STAT pathway stimulation.
(§6) Tissues or cultured cells were lysed with ice-cold lysis buffer (50 mM Tris (pH 8.0, 150 mM NaCl, 10% Glycerol, 1% Triton-X-100) supplied with phosphatase inhibitor (Bimake) and protease inhibitor mixture (Roche Applied Science). Equal amounts of protein were resolved by SDS-PAGE, transferred to nitrocellulose membrane, and subjected to immunoblotting. Antibodies used in this study include anti-following proteins: pSTAT1^Tyr701 (Cell Signaling Technology #9167, 1:3000), GAPDH (Cell Signaling Technology #97166, 1:5000), pJAK1^Tyr1034/1035 (Cell Signaling Technology #74129, 1:1000), pJAK2^Tyr1007/1008 (Cell Signaling Technology #3776, 1:1000), TC-PTP (Abcam #ab180764, 1:3000). PTP1B (Abcam #ab244207, 1:1500).
(§7) Degradation assay was conducted in HEK293 cells with 1 μM degrader and 24 hours incubation.
(§8) The degradation assay was conducted in HEK293 cells with 0.2 μM degrader and 16 hours incubation.
On the technique in general: Immunoblotting shows a protein as a band on a membrane.

Assay [6] concerns the target T2, TC-PTP. The assay is described as follows: Degradation assay in HEK293 cells (immunoblotting). Type of assay: cell-based. Further details: endogenous in cells; host or cells: HEK293. The note with it: 0.2 μM degrader, 16 hours, read-out: % Protein Degradation TC-PTP. Here is the method:
as §5, §6, §7, §8

Where [7] appears, read: library 3, 0.5 μM enzyme, 5 μM Example 6 compound as competitor.
Setting [8] is: library 2, 0.5 μM enzyme, 1.5 mM Fmoc-F2Pmp-OH.
[9] abbreviates: library 1, 2 μM PTP1B, 500 μM Fmoc-F2Pmp-OH competitive ligand, smaller = higher affinity.
Where [10] appears, read: library 1, 2 μM TCPTP, 500 μM Fmoc-F2Pmp-OH competitive ligand, smaller = higher affinity.

As usually defined, the IC50 is the concentration needed to halve the response being measured. Low values mean greater potency, high ones weaker potency.

Turning to “2-(3-fluoro-4- hydroxyphenyl)acetic acid”, the “Displacement %, PTP1B” value at PTP1B [1] (setting [7]) was determined as 72%. In addition, the “Displacement %, TC-PTP” value on TC-PTP [2] (setting [7]) is 75%.

Turning to “2-(4-chloro-2- methylphenoxy)acetic acid”, at PTP1B [1] (setting [8]), the “Displacement %, PTP1B” value stood at 57%. In addition, on TC-PTP [2] (setting [8]), the “Displacement %, TC-PTP” value is 55%.

For the compound 3-bromo-4- methylbenzoic acid, at PTP1B [1] (setting [9]), the “Displacement %, PTP1B” value was 34%. For the same compound, the “Displacement %, TC-PTP” value on TC-PTP [2] (setting [10]) came out at 39%.

Take `COc1cc(CC(=O)N[C@@H](Cc2ccccc2)C(=O)N[C@@H](Cc2ccc(C(F)(F)P(=O)(O)O)cc2)C(=O)N[C@@H](CCCCNC(=O)c2ccc(C)c(Br)c2)C(=O)NCc2ccccc2CCC(=O)N[C@H](C(=O)N2C[C@H](O)C[C@H]2C(=O)NCc2ccc(-c3scnc3C)cc2)C(C)(C)C)ccc1O` (stereo in doubt) [Compound 40, ((4-((S)-3-(((S)-6-(3-bromo-4-methylbenzamido)-1-((2-(3-(((S)-1-((2S,4R)-4-hydroxy-2-((4-(4-methylthiazol-5-yl)benzyl)carbamoyl)pyrrolidin-1-yl)-3,3-dimenthyl-1-oxobutan-2-yl)amino)-3-oxopropyl)benzyl)amino)-1-oxohexan-2-yl)amino)-2-((S)-2-(2-(4-hydroxy-3-methoxyphenyl)acetamido)-3-phenylpropanamido)-3-oxopropyl)phenyl)difluoromethyl)phosphonic Acid]: the IC50 was determined as 3.8 ± 0.4 nM against PTP1B [3] and 2.9 ± 0.5 nM against TC-PTP [4]. Further, on PTP1B [5], the “% Protein Degradation PTP1B” value is recorded as 16%. For the same compound, the percent TC-PTP degradation at 0.2 µM at TC-PTP [6] is 0%.

Regarding `CN(C)c1ccc(CC(=O)O)cc1` [2-(4-(dimethylamino)phenyl) acetic acid], the “Displacement %, PTP1B” value on PTP1B [1] (setting [7]) is 81%. Also, the “Displacement %, TC-PTP” value on TC-PTP [2] (setting [7]) is 79%.

Take `O=C(O)Cc1ccc(Br)cc1` [2-(4-bromophenyl)acetic acid]: the “Displacement %, PTP1B” value at PTP1B [1] (setting [7]) worked out at 77%. Also, at TC-PTP [2] (setting [7]), the “Displacement %, TC-PTP” value is listed as 77%.

`COc1cc(CC(=O)O)ccc1O` [2-(4-hydroxy-3-methoxyphenyl)acetic acid]: the “Displacement %, PTP1B” value on PTP1B [1] (setting [7]) stood at 51%. The “Displacement %, TC-PTP” value at TC-PTP [2] (setting [7]) is 54%.

Regarding `O=C(O)Cc1ccc(O)cc1` [2-(4-hydroxyphenyl)acetic acid], the “Displacement %, PTP1B” value on PTP1B [1] (setting [7]) is 66%. Further, the “Displacement %, TC-PTP” value at TC-PTP [2] (setting [7]) is recorded as 62%.

Take `Cc1ccc(CCC(=O)O)cc1` [3-(p-tolyl)propanoic acid]: the “Displacement %, PTP1B” value at PTP1B [1] (setting [8]) is listed as 47%. Besides, the “Displacement %, TC-PTP” value on TC-PTP [2] (setting [8]) amounted to 53%.

Take `COc1ccc(C(=O)O)cc1F` [3-fluoro-4-methoxybenzoic acid]: the “Displacement %, PTP1B” value on PTP1B [1] (setting [9]) is listed as 57%. Further, at TC-PTP [2] (setting [10]), the “Displacement %, TC-PTP” value came out at 54%.

For the compound `COc1cc(C(=O)O)ccc1[N+](=O)[O-]` [3-methoxy-4-nitrobenzoic acid], the “Displacement %, PTP1B” value at PTP1B [1] (setting [9]) is 41%. In addition, the “Displacement %, TC-PTP” value at TC-PTP [2] (setting [10]) is 40%.

In the case of `O=C(O)c1ccsc1` [3-thiophenecarboxylic acid], the “Displacement %, PTP1B” value at PTP1B [1] (setting [9]) is given as 45%. Besides, the “Displacement %, TC-PTP” value on TC-PTP [2] (setting [10]) is 51%.

For `O=C(O)c1ccc(F)cc1` [4-fluorobenzoic acid], the “Displacement %, PTP1B” value on PTP1B [1] (setting [9]) amounted to 44%. Also, on TC-PTP [2] (setting [10]), the “Displacement %, TC-PTP” value worked out at 46%.

Take `CCOC(=O)N[C@@H](Cc1ccccc1)C(=O)O` [(ethoxycarbonyl)-L- phenylalanine]: the “Displacement %, PTP1B” value on PTP1B [1] (setting [8]) amounted to 44%. Also, the “Displacement %, TC-PTP” value at TC-PTP [2] (setting [8]) is on record as 41%.

For the compound `CC(=O)N[C@@H](Cc1ccccc1)C(=O)O` [acetyl-L-phenylalanine], the “Displacement %, PTP1B” value at PTP1B [1] (setting [8]) amounted to 37%. At TC-PTP [2] (setting [8]), the “Displacement %, TC-PTP” value was determined as 41%.

Turning to “(S)-2-acetamido-3-(4- fluorophenyl)propanoic acid”, the “Displacement %, PTP1B” value on PTP1B [1] (setting [8]) was 45%. The “Displacement %, TC-PTP” value on TC-PTP [2] (setting [8]) turned out to be 45%.
